Values quoted from earlier work in patent publication US11304898B2, “Method of treating carcinoma” (SUN PHARMA ADVANCED RESEARCH COMPANY LTD, priority 2015, dated 2022).

What was measured:
bile tract cancer [1] = details: Phase II studies, bile tract cancer patients
bile tract cancer [2] = details: EORTC study

Compound	achieved response rate (bile tract cancer [1])	objective response rate (bile tract cancer [2]) [%]
O=c1[nH]cc(F)c(=O)[nH]1 [Example 5-FU, 5-Fluorouracil]	less than 20%	
CO[C@@]12[C@H](COC(N)=O)C3=C(C(=O)C(C)=C(N)C3=O)N1C[C@@H]1N[C@@H]12 [Mit-C, mitomycin-C]		10
